According to patent publication US7799824B2, “Quaternary salt CCR2 antagonists” (OraPharma, Inc., priority 2004, dated 2010):
Several values for one entry are separate records, joined by “and”; a condition that tells them apart may be missing. Equal entries are not always repeated.

Tests used:
[1] = tested on: Ovalbumin-induced Allergic Rhinitis; test: Ovalbumin-induced allergic rhinitis in mice, prophylactic effect; type: in vivo, BALB/c mice
Description: BALB/c mice were sensitized by i.p. injection of OVA emulsified in alum (Day 0, 5, 14, 21). Groups of mice were each challenged by intranasal injection of OVA (Day 22-35, 38). Control group mice received an equal volume of vehicle by intranasal injection. Nasal symptoms (number of sneezes and episodes of nose rubbing by the front paws) were counted during the 5 min period following the last intranasal injection (Day 38). […] The histamine receptor antagonist […]® was used as a positive control.

[2] = tested on: Ovalbumin-induced Allergic Rhinitis; test: Ovalbumin-induced allergic rhinitis in mice, therapeutic effect; type: in vivo, BALB/c mice
Description: BALB/c mice were sensitized by i.p. injection of OVA emulsified in alum (Day 0, 5, 14, 21). Groups of mice were each challenged by intranasal injection of OVA (Day 22-35, 38).
Control group mice received an equal volume of vehicle by intranasal injection. Nasal symptoms (number of sneezes and episodes of nose rubbing by the front paws) were counted during the 5 min period following the last intranasal injection (Day 38).
The anti-histamine Pyralimine and the mast cell-stabilizing agent Ketotifen were used as positive controls.

[3] = tested on: ovalbumin (OVA)-induced asthma; test: Ovalbumin (OVA)-induced asthma in mice, mast cell-independent model; type: in vivo
Description: Mice were sensitized by i.p. injection of OVA emulsified in adjuvant (Day 1 and 14). Groups of mice were each challenged by intranasal injection of OVA (Day 25, 26, 27). Compound 17 was administered by i.p. injection (10 and 30 mg/kg) before each intranasal challenge (Day 25, 26, 27).

[4] = tested on: ovalbumin (OVA)-induced asthma; test: Ovalbumin (OVA)-induced asthma in mice, mast cell-dependent model; type: in vivo; settings: 30 mg/kg i.p., Day 42-46
Description: Mice were sensitized by i.p. injection with OVA in saline (10 μg) on alternate days (Day 0, 2, 4, 6, 8, 10, 12). Groups of mice were each challenged by intranasal injection of OVA (Day 40, 43, 46). Compound 17 was administered by i.p. injection (30 mg/kg) on consecutive days (Day 42, 43, 44, 45, 46). Compared to vehicle, leukocyte influx was inhibited by 95% and 55% (in two separate assays), LTC4 influx was inhibited by 90% and IL-4 influx was inhibited by 85%.

CCR2 = biological target: T1, CCR2 (Homo sapiens, UniProt P41597); test: MCP-1 Receptor Binding Assay in THP-1 Cells; settings: for inhibition at 25 µM: MCP-1 binding to CCR2, test concentration of 25 μM, unless indicated otherwise, read-out: % Inhibition Ligand Binding; for IC50: THP-1 cells, 0.5 nM 125I labeled MCP-1, 2 hours at 30° C., read-out: Mean Ligand Binding IC50 (inhibition of MCP-1 binding to CCR2)
T1 sequence (P41597 1-360 isoform P41597-2): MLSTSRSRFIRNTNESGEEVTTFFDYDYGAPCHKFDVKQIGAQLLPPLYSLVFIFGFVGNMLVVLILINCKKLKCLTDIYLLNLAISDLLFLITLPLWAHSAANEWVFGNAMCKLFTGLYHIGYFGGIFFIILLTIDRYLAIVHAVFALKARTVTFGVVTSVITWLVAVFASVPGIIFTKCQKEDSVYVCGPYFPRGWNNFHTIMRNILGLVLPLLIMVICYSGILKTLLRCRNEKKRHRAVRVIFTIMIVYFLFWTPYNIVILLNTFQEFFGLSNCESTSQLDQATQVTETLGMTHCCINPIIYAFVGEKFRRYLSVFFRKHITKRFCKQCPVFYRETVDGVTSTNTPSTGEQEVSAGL
Outline: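 THP-1 cells; bound radioactivity collected on filter plates and counted by scintillation. Buffer-only blanks subtracted, drug-treated values compared with vehicle; nonspecific binding defined with 1 μM unlabeled MCP-1.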

[5] = positive control, dose not given
[6] = intranasal 10 μg/nostril four times per day, Days 29-38
[7] = positive controls, dose not given

## CN1CCCC(n2nc(Cc3ccc(Cl)cc3)c3ccccc3c2=O)CC1 (stereo not drawn) [Astelin, reference compound]
[1]; [5]
  inhibition of nasal symptoms (rubbing): 89%
  inhibition of nasal symptoms (sneezing): 51%

## C[N+](C)(Cc1ccc(NC(=O)c2ccc(Cl)c(Cl)c2)cc1)C1CCOCC1.[Cl-] [Cpd 17, [4-(3,4-dichloro-benzoylamino)-benzyl]-dimethyl-(tetrahydro-pyran-4-yl)-ammonium chloride]
[2]; [6]
  inhibition of nasal symptoms (rubbing): 42%
  inhibition of nasal symptoms (sneezing): 0%
[3]; 10 mg/kg i.p. before each intranasal challenge
  inhibition of leukocyte influx compared to vehicle: 40%
[3]; 30 mg/kg i.p. before each intranasal challenge
  inhibition of leukocyte influx compared to vehicle: 70%
[1]; intranasal 10 μg/nostril
  inhibition of nasal symptoms (rubbing): 57%
  inhibition of nasal symptoms (sneezing): 64%
[1]; intranasal 30 μg/nostril
  inhibition of nasal symptoms (rubbing): 71%
  inhibition of nasal symptoms (sneezing): 82%
[4]
  inhibition of IL-4 influx compared to vehicle: 85%
  inhibition of LTC4 influx compared to vehicle: 90%
[4]; two separate assays
  inhibition of leukocyte influx compared to vehicle: 95% and 55%

## C[N+](C)(Cc1ccc(NC(=O)c2cncc(Br)c2)cc1)C1CCOCC1 [Cpd 172, {4-[(5-bromo-pyridine-3-carbonyl)-amino]-benzyl}-dimethyl-(tetrahydro-pyran-4-yl)-ammonium iodide]
CCR2
  inhibition at 25 µM: 17%

## C[N+](C)(Cc1ccc(NC(=O)c2ccnc(Cl)c2)cc1)C1CCOCC1 [Cpd 173, {4-[(2-chloro-pyridine-4-carbonyl)-amino]-benzyl}-dimethyl-(tetrahydro-pyran-4-yl)-ammonium iodide]
CCR2
  IC50: 8100 nM

## C[N+](C)(Cc1ccc(NC(=O)c2sc3ccccc3c2Cl)cc1)C1CCOCC1 [Cpd 174, {4-[(3-chloro-benzo[b]thiophene-2-carbonyl)-amino]-benzyl}-dimethyl-(tetrahydro-pyran-4-yl)-ammonium iodide]
CCR2
  inhibition at 25 µM: 52%

## C[N+](C)(Cc1ccc(NC(=O)c2cc(Cl)sc2Cl)cc1)C1CCOCC1 [Cpd 175, {4-[(2,5-dichloro-thiophene-3-carbonyl)-amino]-benzyl}-dimethyl-(tetrahydro-pyran-4-yl)-ammonium iodide]
CCR2
  IC50: 1500 nM

## C[N+](C)(Cc1ccc(NC(=O)c2cc3ccccc3s2)cc1)C1CCOCC1 [Cpd 176, {4-[(benzo[b]thiophene-2-carbonyl)-amino]-benzyl}-dimethyl-(tetrahydro-pyran-4-yl)-ammonium iodide]
CCR2
  IC50: 260 nM

## C[N+](C)(Cc1ccc(NC(=O)c2cc3ccccc3s2)cc1)C1CCCCC1 [Cpd 177, {4-[(benzo[b]thiophene-2-carbonyl)-amino]-benzyl}-cyclohexyl-dimethyl-ammonium iodide]
CCR2
  IC50: 170 nM

## C[N+](C)(Cc1ccc(NC(=O)c2sc3ccccc3c2Cl)cc1)C1CCCCC1 [Cpd 178, {4-[(3-chloro-benzo[b]thiophene-2-carbonyl)-amino]-benzyl}-cyclohexyl-dimethyl-ammonium iodide]
CCR2
  IC50: 8800 nM

## CN1CCC(=C2c3ccccc3CC(=O)c3sccc32)CC1 [Ketotifen]
[2]; [7]
  inhibition of nasal symptoms (rubbing): 81%
  inhibition of nasal symptoms (sneezing): 50%

## COc1ccc(CN(CCN(C)C)c2ccccn2)cc1 [Pyralimine]
[2]; [7]
  inhibition of nasal symptoms (rubbing): 85%
  inhibition of nasal symptoms (sneezing): 60%
